Measured values published in patent publication US20090118350A1, “Biomarkers for Identifying Efficacy of Tegaserod in Patients with Chronic Constipation” (priority 2005, published 2009).

Test system: patients with chronic constipation
Assay: Clinical trial, secondary efficacy RESP12: increase of 1 or more CSBM/week over baseline after 12 weeks of treatment, by subgroup and genotype
Format: in vivo, human
Conditions: for Odds Ratio (T6 v P) / % Responders T6: 6-mg bid
Method: Introduction. A clinical trial was performed to evaluate the efficacy of tegaserod (Zelmac®/Zelnorm™) at 6 mg bid (12 mg/day) or 2 mg bid (4 mg/day) vs. placebo by measuring the number of complete spontaneous bowel movements (CSBM) during the first 4 weeks of treatment. Secondary objectives included evaluating the number of CSBM during the entire 12-week treatment period, bowel habits, laxative use, and safety and tolerability issues. The clinical trial design consisted of a 2-week baseline period without medication, a 12-week, randomized, double-blind, placebo-controlled treatment period, and a 4-week withdrawal period without study medication. As part of the clinical trial, DNA was collected from patients at screening for pharmacogenetic analysis to evaluate genetic polymorphisms relating to drug targets and disease aetiology.
Clinical assessments. […] The primary efficacy endpoint evaluated was the increase of 1 or more CSBM/week over baseline after 4 weeks of treatment. A secondary endpoint evaluated in this genotyping study was RESP12, the increase of 1 of more CSBM/week over baseline after 12 weeks of treatment. Patients were classified as responders if they met these criteria and had completed at least 7 days of treatment. Additional secondary efficacy assessments were evaluated based on the weekly diary assessments, such as bothersome constipation, bothersome abdominal pain, and satisfaction with bowel habits at the end of the 12-week treatment period (using the baseline value as a co-variant for analysis).
Statistical analysis. Statistical analysis was performed using SAS version 8.2 (The SAS Institute, Cary, N.C., USA). Analysis methods included Fisher's Exact tests, analysis of Covariance (ANCOVA), logistic regression, and Mantel-Haenzel tests to determine odds ratios and 95% confidence intervals, with significance established at p<0.05. Calculation of linkage disequilibrium was performed using the GOLD (graphical overview of linkage disequilibrium) method described by Abecasis & Cookson, Bioinformatics 16: 182-3 (2000).
Secondary efficacy endpoint: response after 12 weeks of treatment. The same comparison as above was performed using the secondary efficacy endpoint of a mean increase of 1 or more CSBM/week over baseline after 12 weeks of treatment. The results for the 12 individual “high responder” SNPs are presented in TABLE 9 and the results using the comparison of individuals with or without at least one of the twelve SNPs is presented in TABLE 10.

[1] = M + F (<65), 0-12 of the 12 SNPs
[2] = M + F (<65), 1-12 of the 12 SNPs
[3] = M + F (>=65), 0-12 of the 12 SNPs
[4] = M + F (>=65), 1-12 of the 12 SNPs
[5] = M + F (All ages), 0-12 of the 12 SNPs
[6] = M + F (All ages), 0 of the 12 SNPs
[7] = M + F (All ages), 1-12 of the 12 SNPs
[8] = Male (All ages), 0-12 of the 12 SNPs
[9] = Male (All ages), 0 of the 12 SNPs
[10] = Male (All ages), 1-12 of the 12 SNPs

Question: Which results are given for `[H]/N=C(/NCCCCC)N/N=C/c1c[nH]c2ccc(OC)cc12` [tegaserod, Tegaserod]?
Answer: Odds Ratio (T6 v P) (HTR4 (3753) genotype CC): 3.1; % Responders T6 (HTR4 (3753) genotype CT): 50%; Odds Ratio (T6 v P) (HTR4 (3753) genotype CT): 2.7; % Responders T6 (HTR4 (3753) genotype TT): 70%; Odds Ratio (T6 v P) (HTR4 (3753) genotype TT): 3.5; % Responders T6 (HTR4 (3754) genotype AA): 50%; Odds Ratio (T6 v P) (HTR4 (3754) genotype AA): 4.1; % Responders T6 (HTR4 (3754) genotype AT): 45%; Odds Ratio (T6 v P) (HTR4 (3754) genotype AT): 2.0; % Responders T6 (HTR4 (3754) genotype TT): 63%; Odds Ratio (T6 v P) (HTR4 (3754) genotype TT): 2.8; % Responders T6 (HTR4 (3756) genotype AA): 39%; Odds Ratio (T6 v P) (HTR4 (3756) genotype AA): 2.6; % Responders T6 (HTR4 (3756) genotype AC): 54%; Odds Ratio (T6 v P) (HTR4 (3756) genotype AC): 3.0; % Responders T6 (HTR4 (3756) genotype CC): 71%; Odds Ratio (T6 v P) (HTR4 (3756) genotype CC): 4.6; % Responders T6 [1]: 49%; Odds Ratio (T6 v P) [1]: 3.0; % Responders T6 (M + F (<65), 0 of the 12 SNPs): 37%; Odds Ratio (T6 v P) (M + F (<65), 0 of the 12 SNPs): 1.6; % Responders T6 [2]: 62%; Odds Ratio (T6 v P) [2]: 5.6; % Responders T6 [3]: 53%; Odds Ratio (T6 v P) [3]: 2.3; % Responders T6 (M + F (>=65), 0 of the 12 SNPs): 29%; Odds Ratio (T6 v P) (M + F (>=65), 0 of the 12 SNPs): 0.4; % Responders T6 [4]: 70%; Odds Ratio (T6 v P) [4]: 10.1; % Responders T6 [5]: 49%; Odds Ratio (T6 v P) [5]: 2.8; % Responders T6 [6]: 36%; Odds Ratio (T6 v P) [6]: 1.3; % Responders T6 [7]: 63%; Odds Ratio (T6 v P) [7]: 6.0; % Responders T6 (MLN (1783) genotype CC): 49%; Odds Ratio (T6 v P) (MLN (1783) genotype CC): 2.6; % Responders T6 (MLN (1783) genotype CT): 44%; Odds Ratio (T6 v P) (MLN (1783) genotype CT): 2.2; % Responders T6 (MLN (1783) genotype TT): 67%; Odds Ratio (T6 v P) (MLN (1783) genotype TT): 12.0; % Responders T6 [8]: 57%; Odds Ratio (T6 v P) [8]: 3.0; % Responders T6 [9]: 40%; Odds Ratio (T6 v P) [9]: 0.8; % Responders T6 [10]: 73%; Odds Ratio (T6 v P) [10]: 13.3; % Responders T6 (SCNN1A (3806) genotype GG): 62%; Odds Ratio (T6 v P) (SCNN1A (3806) genotype GG): 5.9; % Responders T6 (SCNN1A (3806) genotype GT): 49%; Odds Ratio (T6 v P) (SCNN1A (3806) genotype GT): 2.6; % Responders T6 (SCNN1A (3806) genotype TT): 44%; Odds Ratio (T6 v P) (SCNN1A (3806) genotype TT): 2.2; % Responders T6 (SLC12A2 (1842) genotype AA): 54%; Odds Ratio (T6 v P) (SLC12A2 (1842) genotype AA): 6.2; % Responders T6 (SLC12A2 (1842) genotype AG): 47%; Odds Ratio (T6 v P) (SLC12A2 (1842) genotype AG): 2.7; % Responders T6 (SLC12A2 (1842) genotype GG): 50%; Odds Ratio (T6 v P) (SLC12A2 (1842) genotype GG): 2.5; % Responders T6 (SLC12A2 (3801) genotype CC): 58%; Odds Ratio (T6 v P) (SLC12A2 (3801) genotype CC): 7.9; % Responders T6 (SLC12A2 (3801) genotype CT): 49%; Odds Ratio (T6 v P) (SLC12A2 (3801) genotype CT): 2.4; % Responders T6 (SLC12A2 (3801) genotype TT): 50%; Odds Ratio (T6 v P) (SLC12A2 (3801) genotype TT): 2.9; % Responders T6 (TPH1 (1756) genotype GG): 51%; Odds Ratio (T6 v P) (TPH1 (1756) genotype GG): 6.1; % Responders T6 (TPH1 (1756) genotype GT): 51%; Odds Ratio (T6 v P) (TPH1 (1756) genotype GT): 2.4; % Responders T6 (TPH1 (1756) genotype TT): 45%; Odds Ratio (T6 v P) (TPH1 (1756) genotype TT): 2.2; % Responders T6 (TPH1 (3784) genotype CC): 41%; Odds Ratio (T6 v P) (TPH1 (3784) genotype CC): 1.9; % Responders T6 (TPH1 (3784) genotype CT): 52%; Odds Ratio (T6 v P) (TPH1 (3784) genotype CT): 2.5; % Responders T6 (TPH1 (3784) genotype TT): 51%; Odds Ratio (T6 v P) (TPH1 (3784) genotype TT): 5.8; % Responders T6 (all genotypes): 49%; Odds Ratio (T6 v P) (all genotypes): 2.8; % Responders T6 (all genotypes (Table 11)): 49%; Odds Ratio (T6 v P) (all genotypes (Table 11)): 2.8; response rate (high responder genotypes of HTR4, tegaserod-treated patients): > 60%
